Measured values taken from ChEMBL document CHEMBL4507261, “Data for DCP probe A-192621” (2021).

Legend:
[1] = target: Acetylcholinesterase (Homo sapiens) (UniProt P22303); assay: Acetylcholinesterase (h) Eurofins-Cerep enzyme and uptake assay; conditions: Compound concentration 10.0 uM
[2] = target: Tyrosine-protein kinase ABL1 (Homo sapiens) (UniProt P00519); conditions: Compound concentration 1000.0 nM
[3] = target: Ephrin type-B receptor 1 (Homo sapiens) (UniProt P54762); conditions: Compound concentration 1000.0 nM
[4] = system: Leucine-rich repeat serine/threonine-protein kinase 2 (Homo sapiens), Q5S007 [G2019S]; conditions: Compound concentration 1000.0 nM
[5] = target: T1, Muscarinic acetylcholine receptor M2 (Homo sapiens) (UniProt P08172); assay: M2 (h) Eurofins-Cerep binding assay; parameters: ligand concentration 2 nM; conditions: filed as antagonist, Compound concentration 10.0 uM
T1 sequence (whole entry): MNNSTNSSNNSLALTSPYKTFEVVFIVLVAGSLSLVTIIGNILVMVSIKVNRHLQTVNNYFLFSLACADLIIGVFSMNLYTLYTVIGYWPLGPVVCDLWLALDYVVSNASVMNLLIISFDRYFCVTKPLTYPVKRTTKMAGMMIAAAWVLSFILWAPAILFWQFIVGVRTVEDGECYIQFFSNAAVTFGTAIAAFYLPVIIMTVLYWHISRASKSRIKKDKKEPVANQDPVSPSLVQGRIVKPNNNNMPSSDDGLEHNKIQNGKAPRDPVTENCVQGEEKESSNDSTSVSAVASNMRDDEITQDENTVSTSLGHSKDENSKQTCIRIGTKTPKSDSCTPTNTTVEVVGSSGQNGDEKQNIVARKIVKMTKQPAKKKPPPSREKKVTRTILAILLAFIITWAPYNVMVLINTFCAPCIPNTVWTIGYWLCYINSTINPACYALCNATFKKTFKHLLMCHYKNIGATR

[6] = target: Serine/threonine-protein kinase STK11 (Homo sapiens) (UniProt Q15831); conditions: Compound concentration 1000.0 nM
[7] = target: Myosin light chain kinase, smooth muscle (Homo sapiens) (UniProt Q15746); conditions: Compound concentration 1000.0 nM
[8] = target: Mitogen-activated protein kinase kinase kinase kinase 2 (Homo sapiens) (UniProt Q12851); conditions: Compound concentration 1000.0 nM
[9] = system: Tyrosine-protein kinase ABL1 (Homo sapiens), P00519 [T315I]; conditions: Compound concentration 1000.0 nM
[10] = target: Mitogen-activated protein kinase 11 (Homo sapiens) (UniProt Q15759); conditions: Compound concentration 1000.0 nM
Sequence of Mitogen-activated protein kinase 11 (Homo sapiens) (Q15759 whole entry): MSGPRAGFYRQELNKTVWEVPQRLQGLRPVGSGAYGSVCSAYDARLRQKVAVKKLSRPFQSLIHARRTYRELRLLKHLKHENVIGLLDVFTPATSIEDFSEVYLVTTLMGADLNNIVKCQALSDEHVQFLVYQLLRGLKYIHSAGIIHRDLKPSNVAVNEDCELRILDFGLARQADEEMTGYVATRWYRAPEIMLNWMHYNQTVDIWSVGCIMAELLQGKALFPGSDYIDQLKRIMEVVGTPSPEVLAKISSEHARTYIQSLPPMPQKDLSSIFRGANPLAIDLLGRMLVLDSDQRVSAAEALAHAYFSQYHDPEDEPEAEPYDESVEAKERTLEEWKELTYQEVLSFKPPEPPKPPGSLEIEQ

[11] = target: Serine/threonine-protein kinase pim-2 (Homo sapiens) (UniProt Q9P1W9); conditions: Compound concentration 1000.0 nM
[12] = target: Homeodomain-interacting protein kinase 1 (Homo sapiens) (UniProt Q86Z02); conditions: Compound concentration 1000.0 nM
[13] = target: TGF-beta receptor type-1 (Homo sapiens) (UniProt P36897); conditions: Compound concentration 1000.0 nM
Sequence of TGF-beta receptor type-1 (Homo sapiens) (P36897 whole entry): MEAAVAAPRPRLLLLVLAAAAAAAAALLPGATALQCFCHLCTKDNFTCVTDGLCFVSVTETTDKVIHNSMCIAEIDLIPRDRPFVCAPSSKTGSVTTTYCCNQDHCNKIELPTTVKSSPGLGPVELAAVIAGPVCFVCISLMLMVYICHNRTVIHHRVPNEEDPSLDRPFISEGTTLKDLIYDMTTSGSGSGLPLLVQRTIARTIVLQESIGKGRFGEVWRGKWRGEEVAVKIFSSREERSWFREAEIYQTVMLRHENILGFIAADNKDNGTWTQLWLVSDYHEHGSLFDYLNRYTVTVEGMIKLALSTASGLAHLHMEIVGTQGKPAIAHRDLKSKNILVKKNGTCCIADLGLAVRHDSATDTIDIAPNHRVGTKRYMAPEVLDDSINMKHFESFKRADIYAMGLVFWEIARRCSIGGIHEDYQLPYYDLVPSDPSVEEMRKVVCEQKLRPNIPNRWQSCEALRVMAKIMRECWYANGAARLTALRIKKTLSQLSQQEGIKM

[14] = target: Glutamate NMDA receptor (Rattus norvegicus) (UniProt P35439+Q00959+Q00960+Q00961+Q62645+Q8VHN2+Q9R1M7); assay: PCP Eurofins-Cerep binding assay; format: protein-complex assay; parameters: ligand concentration 10 nM; conditions: filed as antagonist, Compound concentration 10.0 uM
[15] = target: Ephrin type-A receptor 3 (Homo sapiens) (UniProt P29320); conditions: Compound concentration 1000.0 nM
Sequence of Ephrin type-A receptor 3 (Homo sapiens) (P29320 whole entry): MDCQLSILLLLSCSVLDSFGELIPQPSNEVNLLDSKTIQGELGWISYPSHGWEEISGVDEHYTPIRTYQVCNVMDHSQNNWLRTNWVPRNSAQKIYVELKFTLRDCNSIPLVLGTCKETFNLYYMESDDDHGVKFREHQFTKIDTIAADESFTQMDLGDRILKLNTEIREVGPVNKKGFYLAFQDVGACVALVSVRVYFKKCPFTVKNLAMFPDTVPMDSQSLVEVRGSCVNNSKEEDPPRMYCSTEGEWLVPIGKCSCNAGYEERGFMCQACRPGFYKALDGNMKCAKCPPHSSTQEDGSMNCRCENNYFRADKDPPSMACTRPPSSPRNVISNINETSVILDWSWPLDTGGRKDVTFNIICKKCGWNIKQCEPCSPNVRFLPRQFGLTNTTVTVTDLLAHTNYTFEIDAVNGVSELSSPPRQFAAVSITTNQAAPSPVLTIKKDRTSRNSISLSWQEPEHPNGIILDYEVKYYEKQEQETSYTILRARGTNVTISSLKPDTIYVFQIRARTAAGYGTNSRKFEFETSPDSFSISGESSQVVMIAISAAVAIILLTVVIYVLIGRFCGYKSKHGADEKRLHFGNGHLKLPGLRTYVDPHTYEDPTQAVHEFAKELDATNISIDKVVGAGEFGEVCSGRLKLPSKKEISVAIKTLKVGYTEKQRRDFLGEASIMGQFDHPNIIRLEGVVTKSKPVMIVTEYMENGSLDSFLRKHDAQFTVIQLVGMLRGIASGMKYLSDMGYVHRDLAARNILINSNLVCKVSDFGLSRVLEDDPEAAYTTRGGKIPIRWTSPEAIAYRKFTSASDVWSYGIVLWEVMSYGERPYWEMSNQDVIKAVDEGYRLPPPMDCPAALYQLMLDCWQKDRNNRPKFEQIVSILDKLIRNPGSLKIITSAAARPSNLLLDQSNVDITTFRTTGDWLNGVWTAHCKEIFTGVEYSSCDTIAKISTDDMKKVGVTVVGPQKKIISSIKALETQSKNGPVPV

[16] = target: Cyclin-dependent kinase 19 (Homo sapiens) (UniProt Q9BWU1); conditions: Compound concentration 1000.0 nM
Sequence of Cyclin-dependent kinase 19 (Homo sapiens) (Q9BWU1 whole entry): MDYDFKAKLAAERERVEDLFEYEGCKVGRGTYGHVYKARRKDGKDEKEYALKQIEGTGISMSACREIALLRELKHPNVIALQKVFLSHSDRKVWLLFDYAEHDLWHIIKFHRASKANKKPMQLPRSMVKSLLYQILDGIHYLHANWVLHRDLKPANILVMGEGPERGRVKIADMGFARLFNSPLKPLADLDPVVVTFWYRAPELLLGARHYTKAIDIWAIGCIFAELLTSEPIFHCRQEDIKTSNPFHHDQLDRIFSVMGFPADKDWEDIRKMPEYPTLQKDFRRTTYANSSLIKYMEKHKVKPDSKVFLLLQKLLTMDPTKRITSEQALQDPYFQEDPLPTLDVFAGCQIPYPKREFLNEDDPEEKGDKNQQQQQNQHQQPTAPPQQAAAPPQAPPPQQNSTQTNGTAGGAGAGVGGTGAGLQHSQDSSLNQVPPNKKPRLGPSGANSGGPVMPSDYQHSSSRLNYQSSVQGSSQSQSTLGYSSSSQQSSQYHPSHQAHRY

[17] = target: voltage-gated L-type Ca2+ channel (diltiazem site, benzothiazepines) (Rattus norvegicus, UniProt P22002+P27732+Q02485); assay: Ca2+ channel (L, diltiazem site) (benzothiazepines) Eurofins-Cerep binding assay; parameters: incubation time 120 min, incubation temperature RT, ligand concentration 15 nM; conditions: rat cerebral cortex (source of protein), probe [3H]diltiazem (15 nM), compound concentration 10 uM, read-out: % Inhibition of Control Specific Binding (Mean n=2)
[18] = target: Ribosomal protein S6 kinase alpha-5 (Homo sapiens) (UniProt O75582); conditions: Compound concentration 1000.0 nM
[19] = target: Serine/threonine-protein kinase Nek6 (Homo sapiens) (UniProt Q9HC98); conditions: Compound concentration 1000.0 nM
Sequence of Serine/threonine-protein kinase Nek6 (Homo sapiens) (Q9HC98 whole entry): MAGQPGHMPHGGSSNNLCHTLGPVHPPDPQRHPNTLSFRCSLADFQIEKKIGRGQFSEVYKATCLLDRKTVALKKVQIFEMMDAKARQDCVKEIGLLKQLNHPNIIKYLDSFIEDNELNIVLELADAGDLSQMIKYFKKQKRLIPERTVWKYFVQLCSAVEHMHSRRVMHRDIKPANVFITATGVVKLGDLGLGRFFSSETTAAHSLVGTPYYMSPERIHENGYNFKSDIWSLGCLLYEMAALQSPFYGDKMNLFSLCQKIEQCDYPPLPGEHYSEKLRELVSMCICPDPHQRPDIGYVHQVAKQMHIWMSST

[20] = target: Serine/threonine-protein kinase NIM1 (Homo sapiens) (UniProt Q8IY84); conditions: Compound concentration 1000.0 nM
Sequence of Serine/threonine-protein kinase NIM1 (Homo sapiens) (Q8IY84 whole entry): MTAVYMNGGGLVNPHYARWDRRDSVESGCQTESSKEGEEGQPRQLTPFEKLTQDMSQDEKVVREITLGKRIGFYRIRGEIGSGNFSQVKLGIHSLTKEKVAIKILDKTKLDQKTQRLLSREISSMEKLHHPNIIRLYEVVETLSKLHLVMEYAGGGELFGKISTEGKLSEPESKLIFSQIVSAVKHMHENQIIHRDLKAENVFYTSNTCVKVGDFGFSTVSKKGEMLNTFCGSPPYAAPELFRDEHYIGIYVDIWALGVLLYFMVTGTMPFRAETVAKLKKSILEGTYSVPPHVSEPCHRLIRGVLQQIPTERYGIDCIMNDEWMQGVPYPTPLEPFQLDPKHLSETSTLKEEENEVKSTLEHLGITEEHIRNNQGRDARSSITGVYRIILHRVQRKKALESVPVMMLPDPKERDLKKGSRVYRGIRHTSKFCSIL

[21] = target: Serine/threonine-protein kinase RIO1 (Homo sapiens) (UniProt Q9BRS2); conditions: Compound concentration 1000.0 nM
[22] = target: Mitogen-activated protein kinase 1 (Homo sapiens) (UniProt P28482); conditions: Compound concentration 1000.0 nM
Sequence of Mitogen-activated protein kinase 1 (Homo sapiens) (P28482 whole entry): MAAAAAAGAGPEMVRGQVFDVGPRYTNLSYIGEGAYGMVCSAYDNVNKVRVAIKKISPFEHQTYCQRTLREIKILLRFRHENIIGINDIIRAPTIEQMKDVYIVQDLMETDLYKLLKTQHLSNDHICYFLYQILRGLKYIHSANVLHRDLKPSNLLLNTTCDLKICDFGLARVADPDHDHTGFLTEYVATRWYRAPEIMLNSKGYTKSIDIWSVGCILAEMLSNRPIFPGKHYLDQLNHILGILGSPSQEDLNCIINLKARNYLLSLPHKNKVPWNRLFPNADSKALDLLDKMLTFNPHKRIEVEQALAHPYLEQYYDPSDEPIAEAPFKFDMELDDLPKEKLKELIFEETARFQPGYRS

[23] = target: Sodium-dependent noradrenaline transporter (Homo sapiens) (UniProt P23975); assay: norepinephrine transporter (h) Eurofins-Cerep binding assay; conditions: filed as antagonist, Compound concentration 10.0 uM
Sequence of Sodium-dependent noradrenaline transporter (Homo sapiens) (P23975 whole entry): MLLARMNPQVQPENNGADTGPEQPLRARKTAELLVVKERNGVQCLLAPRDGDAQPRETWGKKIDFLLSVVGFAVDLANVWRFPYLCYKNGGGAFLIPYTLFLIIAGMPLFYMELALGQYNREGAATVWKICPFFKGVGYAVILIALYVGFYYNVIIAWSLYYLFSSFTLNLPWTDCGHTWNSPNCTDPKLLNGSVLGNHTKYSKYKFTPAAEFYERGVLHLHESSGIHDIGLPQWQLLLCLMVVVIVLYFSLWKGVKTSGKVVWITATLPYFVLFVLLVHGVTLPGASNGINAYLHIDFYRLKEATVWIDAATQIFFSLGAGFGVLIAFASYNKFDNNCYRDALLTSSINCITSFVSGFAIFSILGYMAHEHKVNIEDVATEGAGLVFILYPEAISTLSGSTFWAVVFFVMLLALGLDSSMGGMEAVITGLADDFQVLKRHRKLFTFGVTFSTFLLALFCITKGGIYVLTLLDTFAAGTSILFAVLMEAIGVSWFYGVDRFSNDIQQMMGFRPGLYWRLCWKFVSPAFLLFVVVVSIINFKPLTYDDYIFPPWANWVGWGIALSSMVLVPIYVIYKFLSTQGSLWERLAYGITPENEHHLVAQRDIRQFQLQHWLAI

[24] = system: Receptor-type tyrosine-protein kinase FLT3 (Homo sapiens), P36888 [UNDEFINED MUTATION]; conditions: Compound concentration 1000.0 nM
[25] = target: Phosphatidylinositol 5-phosphate 4-kinase type-2 gamma (Homo sapiens) (UniProt Q8TBX8); conditions: Compound concentration 1000.0 nM
Sequence of Phosphatidylinositol 5-phosphate 4-kinase type-2 gamma (Homo sapiens) (Q8TBX8 whole entry): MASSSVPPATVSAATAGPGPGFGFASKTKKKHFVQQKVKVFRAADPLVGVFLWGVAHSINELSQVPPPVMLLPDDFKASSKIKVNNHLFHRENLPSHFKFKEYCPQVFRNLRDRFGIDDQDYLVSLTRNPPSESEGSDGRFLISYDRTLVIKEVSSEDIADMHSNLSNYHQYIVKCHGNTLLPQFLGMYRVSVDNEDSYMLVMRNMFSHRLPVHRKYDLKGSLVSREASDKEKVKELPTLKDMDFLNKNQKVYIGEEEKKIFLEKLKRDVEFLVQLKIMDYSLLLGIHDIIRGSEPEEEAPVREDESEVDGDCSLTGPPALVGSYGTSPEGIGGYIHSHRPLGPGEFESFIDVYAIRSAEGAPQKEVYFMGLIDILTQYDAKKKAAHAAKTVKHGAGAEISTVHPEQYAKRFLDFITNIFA

[26] = target: 5-hydroxytryptamine receptor 7 (Homo sapiens) (UniProt P34969); assay: 5-HT7 (h) Eurofins-Cerep binding assay; parameters: ligand concentration 4 nM; conditions: filed as agonist, Compound concentration 10.0 uM
Sequence of 5-hydroxytryptamine receptor 7 (Homo sapiens) (P34969 whole entry): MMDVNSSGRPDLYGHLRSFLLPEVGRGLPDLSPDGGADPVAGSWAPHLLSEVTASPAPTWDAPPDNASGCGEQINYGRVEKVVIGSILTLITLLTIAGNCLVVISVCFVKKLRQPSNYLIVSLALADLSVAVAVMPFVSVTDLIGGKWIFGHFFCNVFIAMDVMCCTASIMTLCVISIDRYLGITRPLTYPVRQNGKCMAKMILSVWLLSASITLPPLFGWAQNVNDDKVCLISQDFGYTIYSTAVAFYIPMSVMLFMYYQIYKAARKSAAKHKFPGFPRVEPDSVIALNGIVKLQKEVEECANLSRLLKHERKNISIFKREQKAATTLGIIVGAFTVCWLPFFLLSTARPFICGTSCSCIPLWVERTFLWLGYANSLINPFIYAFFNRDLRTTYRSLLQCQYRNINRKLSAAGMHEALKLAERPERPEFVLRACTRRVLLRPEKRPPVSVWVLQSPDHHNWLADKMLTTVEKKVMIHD

[27] = target: Serine/threonine-protein kinase 24 (Homo sapiens) (UniProt Q9Y6E0); conditions: Compound concentration 1000.0 nM
[28] = target: Activin receptor type-1 (Homo sapiens) (UniProt Q04771); conditions: Compound concentration 1000.0 nM
[29] = target: Motilin receptor (Homo sapiens) (UniProt O43193); assay: motilin (h Eurofins-Cerep binding assay; parameters: ligand concentration 0.05 nM; conditions: filed as agonist, Compound concentration 10.0 uM
[30] = target: Mitogen-activated protein kinase kinase kinase kinase 4 (Homo sapiens) (UniProt O95819); conditions: Compound concentration 1000.0 nM
[31] = target: Calcium/calmodulin-dependent protein kinase type IV (Homo sapiens) (UniProt Q16566); conditions: Compound concentration 1000.0 nM
[32] = target: Ephrin type-B receptor 4 (Homo sapiens) (UniProt P54760); conditions: Compound concentration 1000.0 nM
[33] = target: T1, Muscarinic acetylcholine receptor M2 (Homo sapiens); conditions: Compound concentration 10.0 uM
[34] = target: Mu-type opioid receptor (Homo sapiens) (UniProt P35372); conditions: Compound concentration 10.0 uM
[35] = target: GABA-A receptor; anion channel (Rattus norvegicus) (UniProt O09028+P15431+P18506+P18508+P19969+P20236+P23574+P23576+P28471+P28473+P30191+P62813+P63079+P63138+Q91ZM7+Q9ES14); conditions: Compound concentration 10.0 uM
[36] = target: Delta-type opioid receptor (Homo sapiens) (UniProt P41143); conditions: Compound concentration 10.0 uM

SMILES	% Inhibition of Control Values (Mean n=2) [1] [%]	residual activity [2] [%]	residual activity [3] [%]	residual activity [4] [%]	% Inhibition of Control Specific Binding (Mean n=2) [5] [%]	residual activity [6] [%]	residual activity [7] [%]	residual activity [8] [%]	residual activity [9] [%]	residual activity [10] [%]	residual activity [11] [%]	residual activity [12] [%]	residual activity [13] [%]	% Inhibition of Control Specific Binding (Mean n=2) [14] [%]	residual activity [15] [%]	residual activity [16] [%]	inhibition at 120 min, 10 µM [17] [%]	residual activity [18] [%]	residual activity [19] [%]	residual activity [20] [%]	other results
CCCOc1ccc([C@@H]2[C@@H](C(=O)O)[C@H](c3ccc4c(c3)OCO4)CN2CC(=O)Nc2c(CC)cccc2CC)cc1 [A-1806262]	4	80	91	84	-7.1	100	100	98	82	98	99	79	64	0.2	99	89	15.4	97	92	81	residual activity [21]: 100%; residual activity [22]: 100%; % Inhibition of Control Specific Binding (Mean n=2) [23]: 1.6%; residual activity [24]: 91%; residual activity [25]: 94%; % Inhibition of Control Specific Binding (Mean n=2) [26]: 0.4%; residual activity [27]: 74%; residual activity [28]: 95%; % Inhibition of Control Specific Binding (Mean n=2) [29]: 4.4%; residual activity [30]: 97%; residual activity [31]: 96%; residual activity [32]: 96%
CCCOc1ccc([C@H]2[C@H](C(=O)O)[C@@H](c3ccc4c(c3)OCO4)CN2CC(=O)Nc2c(CC)cccc2CC)cc1 [A-192621]	7	73	100	91	-8.8	88	85	79	77	95	91	75	64	-1.5	86	95	4.2	89	96	78	inhibition [33]: -5.3%; inhibition [34]: 6.79%; inhibition [35]: 5.57%; residual activity [21]: 86%; residual activity [22]: 100%; % Inhibition of Control Specific Binding (Mean n=2) [23]: 16.2%; residual activity [24]: 81%; residual activity [25]: 49%; % Inhibition of Control Specific Binding (Mean n=2) [26]: 1.9%; residual activity [27]: 84%; inhibition [36]: 9.89%; residual activity [28]: 100%; % Inhibition of Control Specific Binding (Mean n=2) [29]: -17.9%; residual activity [30]: 90%; residual activity [31]: 89%; residual activity [32]: 100%
